Assay [1] concerns brain-specific receptors of rats (3H-benzodiazepine binding). The assay can be described thus: Inhibition of the binding of 3H-benzodiazepine to brain-specific receptors of rats. Also noted: species or system rat (Wistar strain). Particulars: rat cortex P2 fraction; 3H-diazepam 1.5 nM or 3H-flunitrazepam 1.0 nM; test concentration not given; 12% or more is active. An excerpt: A test utilized for the determination of anxiolytic activity is the measurement of the ability of test compounds to inhibit the binding of tritiated benzodiazepines to brain-specific receptors of warm-blooded animals. A modification of the method described by R. F. Squires, et al., Nature, 266, No. 21, pg 732 (Apr. 1977) and H. Mohler, et al., Science, 198, pg 849 (1977) was employed.
Male albino rats (Wistar strain, weighing 150-200 g each) were used. The test compounds were solubilized in either dimethylformamide, acetic acid, ethanol or hydrochloric acid.
Whole cortex of rats was homogenized gently in 20 volumes of ice-cold 0.32 M sucrose, centrifuged twice at 1000 g for 10 minutes and then recentrifuged at 30,000 g for 20 minutes to produce a crude P2 -synaptosomal fraction. The P2 -fraction was either: (1) resuspended in twice the original volume in hypotonic 50 mM Tris.HCl (pH 7.4), or (2) resuspended in one-half the original volume in hypotonic 10 mM Tris.HCl (pH 7.4) and frozen (-20° C.) until time of use. Frozen P2 preparations were thawed and resuspended in four times the original homogenizing volume at time of assay.
The binding assay consisted of 300 μl of the P2 -fraction suspension (0.2-0.4 mg protein), 100 μl of test drug and 100 μl of ^3 H-diazepam (1.5 nM, final concentration) or ^3 H-flunitrazepam (1.0 nM, final concentration) which was added to 1.5 ml of 50 mM Tris.HCl (pH 7.4). Non-specific binding controls and total binding controls received 100 μl of diazepam (3 μM final concentration) and 100 μl of deionized water, respectively, in place of the test compound. Incubation for 30 minutes proceeded in ice and was terminated by filtration, under vacuum, through glass fiber filters. […] After drying at 50°-60° C. for 30 minutes, 10 ml of diluent was added and the radioactivity determined in a scintillation counter.
Inhibition of binding was calculated by the difference between total binding and binding in the presence of test compound, divided by the total binding, X 100. […]

A short description of assay [2]: Reduction of mean arterial blood pressure in spontaneously hypertensive rats. The assay is classed as in vivo, spontaneously hypertensive rats of the Okamoto strain. The following applies: gavage, 100 mg/kg or less, two doses 24 h apart, measured at 28 hours; average mean arterial blood pressure of the rats 160 mm Hg. The procedure:
Certain of the novel compounds of the present invention are active hypotensive agents at non-toxic doses when administered to mammals. These compounds were tested for hypotensive activity by the method of P. S. Chan and D. Poorvin, Clinical and Experimental Hypertension, 1 (6), 817-830 (1979). Male, 16 week old, spontaneously hypertensive rats of the Okamoto strain having an average mean arterial blood pressure of 160+1.5 mm of mercury are used in the test. One to 3 rats are used per test compound. A rat is dosed by gavage with a test compound, suspended in 2% pre-boiled starch at a concentration of 50 mg/ml, at a dose of 100 mg/kg of body weight or less, with 0.9% sodium chloride loading at a dose of 25 ml/kg of body weight. A second identical dose of the test compound, without sodium chloride loading is given 24 hours later. At 28 hours after the initial dose the mean arterial blood pressure is measured by the method of Chan and Poorvin vide supra. The procedure is repeated in a second and third rat when necessary.

The nature of assay [3]: Passive Avoidance Anoxic Induced Amnesia Test in mice. The assay is classed as in vivo, Swiss-Webster mice. The following applies: vs saline control, 30% considered active. From the text:
Another in vivo test associated with decreased neural function in mammals is the Passive Avoidance Anoxic Induced Amnesia Test. This test is used to determine the attenuation of anoxic induced amnesia in mice treated with drug, as compared to saline treated control animals with no drug.
A shock-motivated, single trial, step-through passive avoidance procedure is used. Groups of 25 Swiss-Webster, middle-aged mice (9 months of age) are placed singly in the front chamber of a 2-chamber box and are allowed to voluntarily cross into the rear chamber. As soon as the mouse enters the rear chamber, a door automatically traps the animal and a mild electric shock (0.4 mA for 4 seconds) is delivered to its feet. Following the foot shock, the mice are initially placed in an anoxic environment (0% oxygen) for 12 seconds, which quickly induces unconsciousness. They are then placed in an hypoxic environment (15% oxygen) for four minutes which prolongs the oxygen deprived state, maintaining unconsciousness. All testing is performed 24 hours later, and in all cases the mice appear fully recovered from the previous anoxic/hypoxic treatment. All test compounds are administered intraperitoneally at a dose of 10-200 mg/kg, 30 minutes prior to training and testing. Control animals are injected intraperitoneally only with saline at 0.01 cc/g of body weight.
The latency to enter the rear chamber is recorded for both training and testing. Presumably, the more the animal remembers being shocked, the greater it will inhibit going into the rear chamber and the higher will be its latency to re-enter. An improvement of 30% over saline control scores is considered active.

A short description of assay [4]: Hypoxic Survival Test in mice. The following applies: survival after 5 minutes; for % Survivors: 30 min before hypoxia. Format: in vivo, Royal Hart mice. On the procedure: A useful in vivo test that measures how effectively central nervous system-acting drugs enhance survival in a hypoxic environment, presumably by improving the ratio of energy supply to demand is known as the Hypoxic Survival Test. […] Drugs are tested by intraperitoneally injecting groups of mice 30 minutes prior to placing them in a hypoxic mixture and measuring survival. The rationale of this test is that drugs which enhance survival under hypoxic conditions without concomitant, depression or sedative side effects, may do so by enhancing energy metabolism, or by preserving normal brain function under conditions of reduced energy metabolism. Given the dependence of the brain on a constant supply of energy, drugs which have this property may have many far-reaching therapeutic indications, including recovery from stroke and closed head injury, as well as reducing the deleterious effects of the aging central nervous system.
Groups of 20 Royal Hart mice (6 weeks of age) are injected intraperitoneally with test compound (1-200 mg/kg) 30 minutes prior to placing them in a hypoxic mixture (10% oxygen in 90% […]) and measuring survival after 5 minutes.
A separate group of 20 mice is injected intraperitoneally with saline solution (0.01 cc/g of body weight) and processed as described above.
Still another group of 20 mice is injected intraperitoneally with 0.125 mg/kg of physostigmine and processed as described above.

Regarding `CSc1nc(=O)c2ncn3c2n1CC=C3c1ccccc1` [8-(Methylthio)-4-phenyl-6H,10H-pyrimido[1,2-cd]-purin-10-one], the “% Inhibition of the binding of 3H-benzodiazepine” value in assay [1] amounted to 13%. Same read-out and setting: in the case of `CCn1c(=O)c2ncn3c2n(c1=O)CC=C3c1cccc(C(F)(F)F)c1` [9-Ethyl-4-[3-(trifluoromethyl)phenyl]-6H,8H-pyrimido[1,2,3-cd]purine-8,10(9H)-dione] it was 17%. Take `O=c1c2ncn3c2n(c(=O)n1Cc1ccccc1)CC=C3c1cccc(C(F)(F)F)c1` [9-(Phenylmethyl)-4-[3-(trifluoromethyl)phenyl]-6H,8H-pyrimido[1,2,3-cd]purine-8,10(9H)-dione]: the “Mean arterial blood pressure” value in assay [2] came to 132 mm Hg. Turning to `O=c1[nH]c(=O)n2c3c1ncn3C(c1cccc(Cl)c1)=CC2` [4-(3-Chlorophenyl)-6H,8H-pyrimido[1,2,3-cd]purine-8,10(9H)-dione], the “% Improvement” value in assay [3] (25 mg/kg i.p.) came out at 42%; in assay [3] (50 mg/kg i.p.) it was 43%.

For the compound `O=c1[nH]c(=O)n2c3c1ncn3C(c1cccnc1)=CC2` [4-(3-Pyridinyl)-6H,8H-pyrimido[1,2,3-cd]purine-8,10(9H)-dione], in assay [2], the “Mean arterial blood pressure” value was 127 mm Hg. As for `O=c1[nH]c(=O)n2c3c1ncn3C(c1ccc(N3CCOCC3)cc1)=CC2` [4-[4-(4-Morpholinyl)phenyl]-6H,8H-pyrimido[1,2,3-cd]purine-8,10(9H)-dione], the “% Improvement” value in assay [3] (25 mg/kg i.p.) worked out at 34%. In addition, the “% Survivors” value in assay [4] (100 mg/kg i.p.) was found to be 55%. For `Cn1c(=O)c2ncn3c2n(c1=O)CC=C3c1cccc(C(F)(F)F)c1` [9-Methyl-4-[3-(trifluoromethyl)phenyl]-6H,8H-pyrimido[1,2,3-cd]purine-8,10(9H)-dione], the “% Improvement” value in assay [3] (10 mg/kg i.p.) is 66%; in assay [3] (25 mg/kg i.p.) it was 69%; in assay [3] (50 mg/kg i.p.), 56%; in assay [3] (100 mg/kg i.p.) it was 39%. On to `Cc1ccc(C2=CCn3c(=O)[nH]c(=O)c4ncn2c43)cc1` [4-(4-Methylphenyl)-6H,8H-pyrimido[1,2,3-cd]purine-8,10(9H)-dione], for which the “Mean arterial blood pressure” value in assay [2] was determined as 127 mm Hg. For `O=c1[nH]c(=O)n2c3c1ncn3C(c1cccc([N+](=O)[O-])c1)=CC2` [4-(3-Nitrophenyl)-6H,8H-pyrimido[1,2,3-cd]purine-8,10(9H)-dione], in assay [4] (200 mg/kg i.p.), the “% Survivors” value was determined as 47%.

`O=c1[nH]c(=O)n2c3c1ncn3C(c1cccc(C(F)(F)F)c1)=CC2` [4-[3-(Trifluoromethyl)phenyl]-6H,8H-pyrimido[1,2,3-cd]purine-8,10(9H)-dione]: the “% Improvement” value in assay [3] (50 mg/kg i.p.) stood at 144%; in assay [3] (100 mg/kg i.p.), 44%. Also, the “% Inhibition of the binding of 3H-benzodiazepine” value in assay [1] was found to be 54%. Take `CNC(=O)Oc1ccc2c(c1)[C@]1(C)CCN(C)[C@@H]1N2C` [physostigmine, reference compound]: the “physostigmine treated mice surviving” value in assay [4] (10% oxygen, 0.125 mg/kg i.p., saline controls 5-20%) is 60-80%.

These data come from patent US4904658A, “Substituted-6H,8H-pyrimido-[1,2,3-cd]purine-8,10-(9H)-diones and substituted-6H,10H-pyrimido[1,2-cd]purin-10-ones” (American Cyanamid Company, priority 1988, dated 1990).
